Assay results as given in patent US7163941B2, “Pyrido[2,3-d]pyrimidin-7-carboxylic acid derivatives, their manufacture and use as pharmaceutical agents” (Hoffmann-La Roche Inc., priority 2003, dated 2007).

Experiments:
[1] = molecular target: T1, Lck (p56^lck, active) (Homo sapiens, UniProt P06239); experiment: SRC-Inhibitor-Assay (time-resolved fluorescence), Lck enzyme; assay type: biochemical; conditions: ATP 5 μM, peptide 10 μM, enzyme 2.5 U/ml, pre-incubation 15 min at 15° C.
T1 construct: purchased Upstate (UBI)
Procedure: (§1) The activity of the compounds according to this invention as inhibitors for the src-family tyrosine kinases was shown by using the following assay.
(§2) SRC-Inhibitor-Assay Parameters:
(§3) • Reaction mixture: • ATP 5 μM • Peptide (R+Ja133-Ro): 10 μM • Ja133-Ro 196 nM • Ro 9.8 μM • PT66 230 ng/ml • Assay buffer: 4 mM MgCl2 • 2 mM TCEP • 50 mM HEPES • 0,1% Tween 20 • pH 7.3 • Enzyme: 2.5 U/ml • Inhibitor: max. 25 μM • min. 0.42 nM Material: • Eu-labelled phosphotyrosine antibody: -for Lck Cisbio Mab PT66-K, • for Src EG&G Wallac PT66 Eu-W1024 (all commercially available). • Peptides: Ro: NH2-A-E-E-E-I-Y-G-E-F-E-A-K-K-K-K-CONH2 (SEQ ID NO: 1), and • Ja133-Ro: Ja133-G-Aminocaprylic acid-A-E-E-E-I-Y-G-E-F-E-A-K-K-K-K-CONH2 (SEQ ID NO: 2), wherein Ja133 is LightCycler-Red 640-N-hydroxy succinimide ester; • whereby both peptides were synthesized by an optimized solid phase peptide synthesis protocol (Merrifield, Fed. Proc. Fed. Amer. Soc. Exp. Biol. 21 (1962) 412) on a Zinsser SMP350 peptide synthesizer. Shortly, the peptide was assembled on 160 mg (22.8 μmol scale) of a Rink-Linker modified polystyrene solid phase by repeatedly conjugating an twenty fold excess of aminoacids each protected by temporary piperidine labile Fmoc- and permanent acid labile tert-Bu-, BOC- and Otert-Bu-groups depending on the side chain function. The substrate sequence AEEEIYGEFEAKKKK (SEQ ID NO: 1) was N-terminal additionally mounted with the spacer amino acids Aminocaprylic acid and Glycin. After cleavage of the N-terminal temporary protecting group the still attached and protected peptide was labeled with a 1.5 fold amount of LightCycler-Red 640-N-hydroxy succinimide ester (purchased by Roche Diagnostics GmbH) and triethylamine. After 3 hrs. the resin was washed with Dimethylformamide and Isopropanol until the eluates of the blue resin got colo-rless. […] The substrate was finally isolated by a preparative reverse phase HPLC purification. The purification yielded 12.2 mg RP-HPLC single peak pure blue material (lyophilisate). The identity was proven by MALDI mass spectroscopy [2720.0]. • Enzymes: Upstate Lck (p56^lck, active), Upstate Src (p60^c-src, partially purified) were purchased from UBI. • Time-resolved Fluorescence Assay: Reader: Perkin Elmer, Wallac Viktor 1420-040 multilabel counter; Liquid handling system: Beckman Coulter, Biomek 2000. ATP, Tween 20, HEPES were purchased from Roche Molecular Biochemicals, MgCl2 and MnCl2 were purchased from Merck Eurolab, TCEP was purchased from Pierce, 384 Well low volume fluorescence plates was purchased from Falcon. Assay Description:
(§4) At first the enzyme is pre-incubated for 15 min. at 15° C. in aqueous solution with corresponding amounts of inhibitors according to this invention. Then the phosphorylation reaction is started by adding a reaction mixture, containing ATP, Peptide and PT66, and subsequent shaking. The proceeding of this reaction is immediately monitored using time resolved fluorescence spectroscopy in a suitable well plate reader.
(§5) The IC50-values can be obtained from the reaction rates by using a non-linear curve fit (Excelfit).

[2] = molecular target: T2, Src (p60^c-src, partially purified) (Homo sapiens, UniProt P12931); experiment: SRC-Inhibitor-Assay (time-resolved fluorescence), Src enzyme; assay type: biochemical; conditions: ATP 5 μM, peptide 10 μM, enzyme 2.5 U/ml, pre-incubation 15 min at 15° C.
T2 construct: purchased Upstate (UBI)
Procedure: as §1, §2, §3, §4, §5

T1 sequence (P06239 whole entry, species assumed): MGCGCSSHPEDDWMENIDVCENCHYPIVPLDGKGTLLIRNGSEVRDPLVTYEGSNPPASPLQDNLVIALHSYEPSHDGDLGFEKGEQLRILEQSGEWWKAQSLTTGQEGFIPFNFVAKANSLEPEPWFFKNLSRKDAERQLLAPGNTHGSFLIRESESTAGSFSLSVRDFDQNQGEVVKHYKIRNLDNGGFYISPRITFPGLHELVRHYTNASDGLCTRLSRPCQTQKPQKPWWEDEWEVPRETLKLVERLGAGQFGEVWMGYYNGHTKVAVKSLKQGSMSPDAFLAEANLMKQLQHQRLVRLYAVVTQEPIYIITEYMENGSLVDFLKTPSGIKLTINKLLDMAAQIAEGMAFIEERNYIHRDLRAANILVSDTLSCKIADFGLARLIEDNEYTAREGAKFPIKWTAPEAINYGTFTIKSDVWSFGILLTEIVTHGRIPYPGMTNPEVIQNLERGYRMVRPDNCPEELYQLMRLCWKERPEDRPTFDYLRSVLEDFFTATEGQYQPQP
T2 sequence (P12931 whole entry, species assumed): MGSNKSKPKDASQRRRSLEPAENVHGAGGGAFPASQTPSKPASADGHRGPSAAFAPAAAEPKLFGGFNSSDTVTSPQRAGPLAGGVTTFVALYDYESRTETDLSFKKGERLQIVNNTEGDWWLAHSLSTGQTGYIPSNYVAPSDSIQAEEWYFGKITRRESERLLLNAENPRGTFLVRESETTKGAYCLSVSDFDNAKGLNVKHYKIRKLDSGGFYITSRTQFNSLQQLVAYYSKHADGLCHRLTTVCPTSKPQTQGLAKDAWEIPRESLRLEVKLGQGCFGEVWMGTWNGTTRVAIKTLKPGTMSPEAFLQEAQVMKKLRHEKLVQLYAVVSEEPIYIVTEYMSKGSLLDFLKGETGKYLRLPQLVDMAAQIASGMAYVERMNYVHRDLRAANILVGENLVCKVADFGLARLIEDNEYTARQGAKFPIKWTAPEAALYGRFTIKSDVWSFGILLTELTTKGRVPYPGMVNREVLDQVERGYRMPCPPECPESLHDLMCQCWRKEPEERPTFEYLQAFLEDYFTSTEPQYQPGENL

IC50 [1] | IC50 [2] | SMILES
113 nM | 16.6 nM | CS(=O)(=O)c1cccc(Nc2ncc3cc(-c4ccccc4Br)c(C(N)=O)nc3n2)c1 [Example 3-7, 6-(2-Bromo-phenyl)-2-(3-methanesulfonyl-phenylamino)-pyrido[2,3-d]pyrimidine-7-carboxylic acid amide]
2.1 nM | 1 nM | CN1CCN(c2ccc(Nc3ncc4cc(-c5ccccc5Br)c(C(=O)NCCNS(C)(=O)=O)nc4n3)cc2)CC1 [Example 7-19, 6-(2-bromo-phenyl)-2-[4-(4-methyl-piperazin-1-yl)-phenylamino]-pyrido[2,3-d]pyrimidine-7-carboxylic acid (2-methanesulfonylamino-ethyl)-amide]
584 nM | 149 nM | C[S+]([O-])CCNC(=O)c1nc2nc(Nc3ccc(F)cc3)ncc2cc1-c1ccccc1Br (stereo not drawn) [Example 3-40, 6-(2-Bromo-phenyl)-2-(4-fluoro-phenylamino)-pyrido[2,3-d]pyrimidine-7-carboxylic acid (2-methanesulfinyl-ethyl)-amide]
62.7 nM | 19.3 nM | O=C(N[C@H]1CCNC1)c1nc2nc(Nc3ccc(F)cc3)ncc2cc1-c1ccccc1Br [Example 3-28, (S)-6-(2-Bromo-phenyl)-2-(4-fluoro-phenylamino)-pyrido[2,3-d]pyrimidine-7-carboxylic acid pyrrolidin-3-ylamide]
49.9 nM | 4.5 nM | N#Cc1nc2nc(Nc3ccc(OCCO)cc3)ncc2cc1-c1ccccc1Br [Example 4-3, 6-(2-Bromo-phenyl)-2-[4-(2-hydroxy-ethoxy)-phenylamino]-pyrido[2,3-d]pyrimidine-7-carbonitrile]
189 nM | 21 nM | NS(=O)(=O)CCNC(=O)c1nc2nc(Nc3ccc(F)cc3)ncc2cc1-c1ccccc1Br [Example 3-37, 6-(2-Bromo-phenyl)-2-(4-fluoro-phenylamino)-pyrido[2,3-d]pyrimidine-7-carboxylic acid (2-sulfamoyl-ethyl)-amide]
662 nM | 158 nM | O=C(NCCN1CCOCC1)c1nc2nc(Nc3ccc(F)cc3)ncc2cc1-c1ccccc1Br [Example 3-22, 6-(2-Bromo-phenyl)-2-(4-fluoro-phenylamino)-pyrido[2,3-d]pyrimidine-7-carboxylic acid (2-morpholin-4-yl-ethyl)-amide]
73.8 nM | 6.9 nM | NC(=O)c1nc2nc(Nc3ccc(S(N)(=O)=O)cc3)ncc2cc1-c1ccccc1Br [Example 3-4, 6-(2-Bromo-phenyl)-2-(4-sulfamoyl-phenylamino)-pyrido[2,3-d]pyrimidine-7-carboxylic acid amide]
232 nM | 11.3 nM | NS(=O)(=O)CCNC(=O)c1nc2nc(Nc3ccc4c(c3)S(=O)(=O)CCO4)ncc2cc1-c1ccccc1Br [Example 7-13, 6-(2-bromo-phenyl)-2-(4,4-dioxo-3,4-dihydro-2H-4lambda*6*-benzo[1,4]oxathiin-6-ylamino)-pyrido[2,3-d]pyrimidine-7-carboxylic acid (2-sulfamoyl-ethyl)-amide]
350 nM | 34.1 nM | CN(C)CCNC(=O)c1nc2nc(Nc3ccc(F)cc3)ncc2cc1-c1ccccc1Br [Example 3-12, 6-(2-Bromo-phenyl)-2-(4-fluoro-phenylamino)-pyrido[2,3-d]pyrimidine-7-carboxylic acid (2-dimethylamino-ethyl)-amide]
100 nM | 42.8 nM | CNCCCNC(=O)c1nc2nc(Nc3ccc(F)cc3)ncc2cc1-c1ccccc1Br [Example 3-31, 6-(2-Bromo-phenyl)-2-(4-fluoro-phenylamino)-pyrido[2,3-d]pyrimidine-7-carboxylic acid (3-methylamino-propyl)-amide]
38.1 nM | 16.8 nM | CN(C)CC(=O)NNC(=O)c1nc2nc(Nc3ccc(F)cc3)ncc2cc1-c1ccccc1Br [Example 3-46, 6-(2-Bromo-phenyl)-2-(4-fluoro-phenylamino)-pyrido[2,3-d]pyrimidine-7-carboxylic acid N′-(2-dimethylamino-acetyl)-hydrazide]
20.1 nM | 6.5 nM | N#Cc1nc2nc(Nc3ccc(N4CCOCC4)cc3)ncc2cc1-c1ccccc1Br [Example 4-1, 6-(2-Bromo-phenyl)-2-(4-morpholin-4-yl-phenylamino)-pyrido[2,3-d]pyrimidine-7-carbonitrile; compound with trifluoro-acetic acid]
11.4 nM | 0.4 nM | CS(=O)(=O)NCCNC(=O)c1nc2nc(Nc3ccc(N4CCOCC4)cc3)ncc2cc1-c1ccccc1Br [Example 7-15, 6-(2-bromo-phenyl)-2-(4-morpholin-4-yl-phenylamino)-pyrido[2,3-d]pyrimidine-7-carboxylic acid (2-methanesulfonylamino-ethyl)-amide]
7.3 nM | 4.3 nM | O=C(Nc1cc[nH]n1)c1nc2nc(Nc3ccc(F)cc3)ncc2cc1-c1ccccc1Br [Example 3-49, 6-(2-Bromo-phenyl)-2-(4-fluoro-phenylamino)-pyrido[2,3-d]pyrimidine-7-carboxylic acid (1H-pyrazol-3-yl)-amide]
127 nM | 97.9 nM | O=C(N[C@@H]1CCCNC1)c1nc2nc(Nc3ccc(F)cc3)ncc2cc1-c1ccccc1Br [Example 3-34, (R)-6-(2-Bromo-phenyl)-2-(4-fluoro-phenylamino)-pyrido[2,3-d]pyrimidine-7-carboxylic acid piperidin-3-ylamide]
37 nM | 5 nM | CS(=O)(=O)NCCNC(=O)c1nc2nc(Nc3ccc4c(c3)S(=O)(=O)CCO4)ncc2cc1-c1ccccc1Br [Example 7-22, 6-(2-bromo-phenyl)-2-(4,4-dioxo-3,4-dihydro-2H-4lambda*6*-benzo[1,4]oxathiin-6-ylamino)-pyrido[2,3-d]pyrimidine-7-carboxylic acid (2-methanesulfonylamino-ethyl)-amide]
5.1 nM | 1.8 nM | CCN(CC)CCOc1ccc(Nc2ncc3cc(-c4ccccc4Br)c(C#N)nc3n2)cc1 [Example 4-2, 6-(2-Bromo-phenyl)-2-[4-(2-diethylamino-ethoxy)-phenylamino]-pyrido[2,3-d]pyrimidine-7-carbonitrile]
126 nM | 26 nM | Cc1cc(CNC(=O)c2nc3nc(Nc4ccc(F)cc4)ncc3cc2-c2ccccc2Br)nn1C [Example 3-41, 6-(2-Bromo-phenyl)-2-(4-fluoro-phenylamino)-pyrido[2,3-d]pyrimidine-7-carboxylic acid (1,5-dimethyl-1H-pyrazol-3-ylmethyl)-amide]
809 nM | 129 nM | O=C(NCC[S+]([O-])CCO)c1nc2nc(Nc3ccc(F)cc3)ncc2cc1-c1ccccc1Br (stereo not drawn) [Example 3-43, 6-(2-Bromo-phenyl)-2-(4-fluoro-phenylamino)-pyrido[2,3-d]pyrimidine-7-carboxylic acid [2-(2-hydroxy-ethanesulfinyl)-ethyl]-amide]
573 nM | 195 nM | CC(CN(C)C)NC(=O)c1nc2nc(Nc3ccc(F)cc3)ncc2cc1-c1ccccc1Br (stereo not drawn) [Example 3-23, 6-(2-Bromo-phenyl)-2-(4-fluoro-phenylamino)-pyrido[2,3-d]pyrimidine-7-carboxylic acid (2-dimethylamino-1-methyl-ethyl)-amide]
